The supplement of paper PMC10307832

Columns and labels:
Experiment in all cases: relative viability (nuclei count vs DMSO), 5 days (fraction); higher = more cells survive
ABC-1 = tested on: ABC-1
Method in brief: (§1)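 Nuclei were stained with Hoechst during a one-step fixation (final 0.05% Triton X-100, 1% formaldehyde, 1 ug/ml Hoechst) carried out 5 days after dosing, then counted on 4× images. The cells, lung cancer lines in 1536-well plates, had been dosed by pin tool the day after seeding with one drug alone or a fixed anchor-drug dose plus five library-drug doses (not always all listed) in √10 steps. Relative viability is the nuclei count in treated wells divided by that in vehicle wells, and each value is the median of duplicate plates.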

CAL-12T = tested on: CAL-12T
Method in brief: as §1

ChaGo-K-1 = tested on: ChaGo-K-1
Method in brief: as §1

HCC-366 = tested on: HCC-366
Method in brief: as §1

HCC-78 = tested on: HCC-78
Method in brief: as §1

LC-2-ad = tested on: LC-2-ad
Method in brief: as §1

LOU-NH91 = tested on: LOU-NH91
Method in brief: as §1

LU99A = tested on: LU99A
Method in brief: as §1

NCI-H1395 = tested on: NCI-H1395
Method in brief: as §1

NCI-H1651 = tested on: NCI-H1651
Method in brief: as §1

NCI-H1734 = tested on: NCI-H1734
Method in brief: as §1

NCI-H1755 = tested on: NCI-H1755
Method in brief: as §1

NCI-H1793 = tested on: NCI-H1793
Method in brief: as §1

NCI-H1944 = tested on: NCI-H1944
Method in brief: as §1

NCI-H2087 = tested on: NCI-H2087
Method in brief: as §1

NCI-H2170 = tested on: NCI-H2170
Method in brief: as §1

NCI-H2228 = tested on: NCI-H2228
Method in brief: as §1

NCI-H2405 = tested on: NCI-H2405
Method in brief: as §1

NCI-H3122 = tested on: NCI-H3122
Method in brief: as §1

NCI-H460 = tested on: NCI-H460
Method in brief: as §1

PC-3 [JPC-3] = tested on: PC-3 [JPC-3]
Method in brief: as §1

RERF-LC-KJ = tested on: RERF-LC-KJ
Method in brief: as §1

UMC-11 = tested on: UMC-11
Method in brief: as §1

## CC1(C)CCC(c2ccc(Cl)cc2)=C(CN2CCN(c3ccc(C(=O)NS(=O)(=O)c4ccc(N[C@H](CCN5CCOCC5)CSc5ccccc5)c(S(=O)(=O)C(F)(F)F)c4)cc3)CC2)C1 [Navitoclax] + CC(=O)c1c(C)c2cnc(Nc3ccc(N4CCNCC4)cn3)nc2n(C2CCCC2)c1=O [Palbociclib] (partner 0.5 µM)
ABC-1; first compound 0.005 µM
  relative viability: 0.896
ABC-1; first compound 0.01581 µM
  relative viability: 0.845
ABC-1; first compound 0.05 µM
  relative viability: 0.691
ABC-1; first compound 0.1581 µM
  relative viability: 0.747
ABC-1; first compound 0.5 µM
  relative viability: 0.639
CAL-12T; first compound 0.005 µM
  relative viability: 0.4
CAL-12T; first compound 0.01581 µM
  relative viability: 0.445
CAL-12T; first compound 0.05 µM
  relative viability: 0.409
CAL-12T; first compound 0.1581 µM
  relative viability: 0.496
CAL-12T; first compound 0.5 µM
  relative viability: 0.405
ChaGo-K-1; first compound 0.005 µM
  relative viability: 0.971
ChaGo-K-1; first compound 0.01581 µM
  relative viability: 0.926
ChaGo-K-1; first compound 0.05 µM
  relative viability: 0.492
ChaGo-K-1; first compound 0.1581 µM
  relative viability: 0.903
ChaGo-K-1; first compound 0.5 µM
  relative viability: 0.954
HCC-366; first compound 0.005 µM
  relative viability: 0.355
HCC-366; first compound 0.01581 µM
  relative viability: 0.48
HCC-366; first compound 0.1581 µM
  relative viability: 0.35
HCC-366; first compound 0.5 µM
  relative viability: 0.34
HCC-78; first compound 0.005 µM
  relative viability: 0.509
HCC-78; first compound 0.01581 µM
  relative viability: 0.428
HCC-78; first compound 0.05 µM
  relative viability: 0.441
HCC-78; first compound 0.1581 µM
  relative viability: 0.448
HCC-78; first compound 0.5 µM
  relative viability: 0.489
LC-2-ad; first compound 0.005 µM
  relative viability: 0.505
LC-2-ad; first compound 0.01581 µM
  relative viability: 0.452
LC-2-ad; first compound 0.05 µM
  relative viability: 0.456
LC-2-ad; first compound 0.1581 µM
  relative viability: 0.413
LC-2-ad; first compound 0.5 µM
  relative viability: 0.412
LOU-NH91; first compound 0.005 µM
  relative viability: 0.53
LOU-NH91; first compound 0.01581 µM
  relative viability: 0.523
LOU-NH91; first compound 0.05 µM
  relative viability: 0.441
LOU-NH91; first compound 0.1581 µM
  relative viability: 0.477
LOU-NH91; first compound 0.5 µM
  relative viability: 0.409
LU99A; first compound 0.005 µM
  relative viability: 0.392
LU99A; first compound 0.01581 µM
  relative viability: 0.433
LU99A; first compound 0.1581 µM
  relative viability: 0.437
LU99A; first compound 0.5 µM
  relative viability: 0.48
NCI-H1395; first compound 0.005 µM
  relative viability: 0.617
NCI-H1395; first compound 0.01581 µM
  relative viability: 0.664
NCI-H1395; first compound 0.05 µM
  relative viability: 0.674
NCI-H1395; first compound 0.1581 µM
  relative viability: 0.653
NCI-H1395; first compound 0.5 µM
  relative viability: 0.583
NCI-H1651; first compound 0.005 µM
  relative viability: 0.513
NCI-H1651; first compound 0.01581 µM
  relative viability: 0.552
NCI-H1651; first compound 0.05 µM
  relative viability: 0.494
NCI-H1651; first compound 0.1581 µM
  relative viability: 0.513
NCI-H1651; first compound 0.5 µM
  relative viability: 0.54
NCI-H1734; first compound 0.005 µM
  relative viability: 0.339
NCI-H1734; first compound 0.01581 µM
  relative viability: 0.374
NCI-H1734; first compound 0.1581 µM
  relative viability: 0.296
NCI-H1734; first compound 0.5 µM
  relative viability: 0.367
NCI-H1755; first compound 0.005 µM
  relative viability: 0.433
NCI-H1755; first compound 0.01581 µM
  relative viability: 0.482
NCI-H1755; first compound 0.05 µM
  relative viability: 0.436
NCI-H1755; first compound 0.1581 µM
  relative viability: 0.477
NCI-H1755; first compound 0.5 µM
  relative viability: 0.488
NCI-H1793; first compound 0.005 µM
  relative viability: 0.312
NCI-H1793; first compound 0.01581 µM
  relative viability: 0.281
NCI-H1793; first compound 0.1581 µM
  relative viability: 0.336
NCI-H1793; first compound 0.5 µM
  relative viability: 0.295
NCI-H1944; first compound 0.005 µM
  relative viability: 0.345
NCI-H1944; first compound 0.01581 µM
  relative viability: 0.364
NCI-H1944; first compound 0.1581 µM
  relative viability: 0.3
NCI-H1944; first compound 0.5 µM
  relative viability: 0.341
NCI-H2087; first compound 0.005 µM
  relative viability: 0.22
NCI-H2087; first compound 0.01581 µM
  relative viability: 0.244
NCI-H2087; first compound 0.1581 µM
  relative viability: 0.255
NCI-H2087; first compound 0.5 µM
  relative viability: 0.257
NCI-H2170; first compound 0.005 µM
  relative viability: 0.391
NCI-H2170; first compound 0.01581 µM
  relative viability: 0.382
NCI-H2170; first compound 0.05 µM
  relative viability: 0.409
NCI-H2170; first compound 0.1581 µM
  relative viability: 0.394
NCI-H2170; first compound 0.5 µM
  relative viability: 0.377
NCI-H2228; first compound 0.005 µM
  relative viability: 0.915
NCI-H2228; first compound 0.01581 µM
  relative viability: 0.986
NCI-H2228; first compound 0.1581 µM
  relative viability: 0.703
NCI-H2228; first compound 0.5 µM
  relative viability: 0.687
NCI-H2405; first compound 0.005 µM
  relative viability: 0.501
NCI-H2405; first compound 0.01581 µM
  relative viability: 0.562
NCI-H2405; first compound 0.05 µM
  relative viability: 0.562
NCI-H2405; first compound 0.1581 µM
  relative viability: 0.511
NCI-H2405; first compound 0.5 µM
  relative viability: 0.506
NCI-H3122; first compound 0.005 µM
  relative viability: 0.206
NCI-H3122; first compound 0.01581 µM
  relative viability: 0.164
NCI-H3122; first compound 0.05 µM
  relative viability: 0.225
NCI-H3122; first compound 0.1581 µM
  relative viability: 0.177
NCI-H3122; first compound 0.5 µM
  relative viability: 0.182
NCI-H460; first compound 0.005 µM
  relative viability: 0.167
NCI-H460; first compound 0.01581 µM
  relative viability: 0.159
NCI-H460; first compound 0.05 µM
  relative viability: 0.0945
NCI-H460; first compound 0.1581 µM
  relative viability: 0.217
NCI-H460; first compound 0.5 µM
  relative viability: 0.13
PC-3 [JPC-3]; first compound 0.005 µM
  relative viability: 0.576
PC-3 [JPC-3]; first compound 0.01581 µM
  relative viability: 0.575
PC-3 [JPC-3]; first compound 0.05 µM
  relative viability: 0.545
PC-3 [JPC-3]; first compound 0.1581 µM
  relative viability: 0.531
PC-3 [JPC-3]; first compound 0.5 µM
  relative viability: 0.506
RERF-LC-KJ; first compound 0.005 µM
  relative viability: 1.06
RERF-LC-KJ; first compound 0.01581 µM
  relative viability: 1.01
RERF-LC-KJ; first compound 0.05 µM
  relative viability: 1.14
RERF-LC-KJ; first compound 0.1581 µM
  relative viability: 1.07
RERF-LC-KJ; first compound 0.5 µM
  relative viability: 1.01
UMC-11; first compound 0.005 µM
  relative viability: 0.388
UMC-11; first compound 0.01581 µM
  relative viability: 0.305
UMC-11; first compound 0.05 µM
  relative viability: 0.333
UMC-11; first compound 0.1581 µM
  relative viability: 0.322
UMC-11; first compound 0.5 µM
  relative viability: 0.319
